Assay results: patent publication US20110124614A1, “Methods And Compositions For The Treatment of Autoimmune Disorders” (priority 2008, published 2011)
Where “and” joins values, the source holds several entries; their conditions need not be identical. Identical values can stand only once.

Key:
[1] = system: cytokine secretion by splenocytes of WT immunized mice; assay: Cytokine secretion of mMog-35-55 stimulated splenocytes, Luminex, WT mice; assay type: in vivo, mouse; conditions: 48 h supernatants
Method: PD-1KO (Dr. […] One week after implantation experimental autoimmune encephalomyelitis (EAE) was induced. Splenocytes were harvested from […] cell proliferation and cytokine secretion in 48 h supernatants. (*P<0.05, or **P<0.01 compared to placebo). Lymph node and spleen cells were cultured at 4×10^6 cells/well in a 24 well flat-bottom culture plate in stimulation medium (RPMI 1640, 1% sodium pyruvate, 1% L-glutamine, 0.4% 2-β-ME, 10% FBS) with 25 μg/ml mMog-35-55 peptide for 48H. Supernatants were then harvested and stored at -80° C. until tested for cytokines. Culture supernatants were assessed for cytokine levels using a Luminex Bio-Plex mouse cytokine assay kit (BioRad, Hercules, Calif.) following the manufacturer's instructions. The following cytokines were determined in a single assay in three separate experiments: IL-1βIFN-γ, TNF-α, IL-2, IL-4, IL-5. IL-6, IL-12, IL-13, and IL-17. […] This cytokine profile was drastically altered in G-1 treated PD-1Ko mice. The decrease of Il-17 and increase of Il-6, Il-10 and IFN-γ production were abolished, whereas the reduction in IL-2 and Il-4 remained. Thus PD-1 was required for […] downregulation of IL-17 but not Il-2 and Il-4, and upregulation of IL-6, Il10 and IFN-γ.

[2] = system: EAE in heterozygous (GPR30^+/−) female mice; conditions: mouse, in vivo
[3] = system: EAE in GPR30KO female mice; assay: EAE clinical scoring, E2 pellets, GPR30KO mice (Example II); assay type: in vivo, mouse; conditions: E2 treated GPR30KO mice, 2.5 mg/60 day pellet
[4] = system: CNS infiltration and demyelination in GPR30KO EAE mice; assay: Spinal cord histology (H&E, LFB-PAS), GPR30KO EAE mice; assay type: in vivo, mouse; conditions: E2-treated GPR30-KO mice, FIG. 1B
Source text: Spinal cords were dissected out for histology. Intact spinal columns were removed and dissected after fixation in 4% paraformaldehyde, dehydrated and embedding in paraffin. To examine neuroinflammation, the sections were stained with hematoxylin and eosin (H&E). To examine demyelination, the sections were stained with Luxon fast blue plus periodic acid Schiff (LFB-PAS).

| SMILES | secretion of IL-17 ([1]; G-1 1.8 mg/40 day pellet, WT, 25 μg/ml mMog-35-55) | production of IFN-γ ([1]; G-1 treated WT) | production of IL-1β ([1]; G-1 treated WT) | production of IL-5 ([1]; G-1 treated WT) | production of Il-4 ([1]; G-1 treated WT) | production of Il-6 ([1]; G-1 treated WT) | production of Il-12 ([1]; G-1 treated WT) | production of TNF-α ([1]; G-1 treated WT) | secretion of IL-2 ([1]; G-1 treated WT) | secretion of IL-10 ([1]; G-1 treated WT) | Daily [2] | Incidence [2] | Mortality [2] | Onset [2] | clinical EAE (in words) [2] | clinical EAE (in words) [3] | cellular infiltration and demyelination in CNS [4] |
| --- | --- | --- | --- | --- | --- | --- | --- | --- | --- | --- | --- | --- | --- | --- | --- | --- | --- |
| CC(=O)c1ccc2c(c1)C1C=CCC1C(c1cc3c(cc1Br)OCO3)N2 (centres unmarked) [G-1] | significantly reduced | increased | did not significantly change | did not significantly change | suppressed | increased | did not significantly change | did not significantly change | significantly reduced | increased | – | – | – | – | – | – | – |
| C[C@]12CC[C@@H]3c4ccc(O)cc4CC[C@H]3[C@@H]1CC[C@@H]2O [E2, 17β estradiol] | – | – | – | – | – | – | – | – | – | – | 2.6 ± 0.8 | 4/7 and 5/10 | 0/7 and 0/10 | 20.0 ± 1.0 | delayed onset and were only partially protected from EAE | delayed onset and were only partially protected from EAE | visibly present, but at a reduced level |
